From US20160021873A1, “STEM CELL PRESERVATION MEDIUM, STEM CELL PRESERVATION METHOD, AND STEM CELL PRESERVATION SYSTEM” (KYOKUTO PHARMACEUTICAL INDUSTRIAL CO., LTD., priority 2012, published 2016)

Tested on: human iPS cells
Test: survival rate on ROCK inhibitor (+) versus (-) cultivation after thawing
Format: cell-based
Details: 10 μM Y-27632 for two days then three days without; rapid thawing with warm culture medium; ROCK inhibitor (-) cultivation about 30%
Method: Cultivation and freezing in the stem cell preservation method were carried out by procedures similar to those of Embodiment 2. Regarding thawing, after a warm culture medium was used to conduct rapid thawing, difference of survival rate was measured depending on whether the ROCK inhibitor 10 μM Y-27632 was added or not. Where the inhibitor was added, in the presence of Y-27632, cultivation was performed for two days, thereafter, cultivation was performed additionally for three days in a culture medium free of Y-27632. On the other hand, where no inhibitor was added, cultivation was performed for five days in a normal culture medium. On both the cultivation, a survival rate was measured according to the method described in Embodiment 2.

Compound: C[C@@H](N)[C@H]1CC[C@H](C(=O)Nc2ccncc2)CC1 [ROCK inhibitor, Y-27632]
- survival rate: about 120%
